pEC50, pIC50: −log10 of the molar value. Where two headings read alike, the source gives them in different places.
What was measured:
[1] = molecular target: T1, HIV-integrase (Human immunodeficiency virus type 1 group M subtype B, UniProt P12497); assay: HIV-Integrase Inhibition Activity (SPA bead strand-transfer assay); type: biochemical
T1 construct: Recombinant integrase (0.26 ng) was incubated with the beads
How it was run: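 Biotin-labelled substrate DNA (5 pmole) bound to streptavidin SPA beads, preloaded with recombinant integrase (0.26 ng) for 90 min at 37° C, then washed. Inhibitors and 0.1 fmol P33-labelled target DNA added; reaction stopped with 10 mM EDTA. Integration read as scintillation CPM.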

[2] = test system: NL-Rluc virus; assay: Inhibition of HIV replication (recombinant NL-Rluc virus, luciferase); type: cell-based; details: Human immunodeficiency virus 1, read-out: Inhibition of HIV replication
[3] = test system: NL36G virus
Method: Virus and cell lines. The T-cell line, MT-2, was obtained through the AIDS Research and Reference Reagent Program. MT-2 cells were sub-cultured twice a week in RPMI 1640 medium supplemented with 10% fetal bovine serum, 2 mM L-glutamine, and 10 mM HEPES buffer pH 7.5. The HIV-1303B virus is a molecular clone derived from the NL4-3 strain of HIV-1 that was obtained from the NIH AIDS Research and Reference Reagent Program. For combinations with enfuvirtide, the NL36G virus was used. […] Virus stocks were made by transfecting 293T cells with a proviral DNA clone using LipofectAMINE PLUS (Invitrogen), according to the manufacturer's instructions. Three days post-transfection, virus was harvested and passaged once in MT-2 cells before titration in MT-2 cells.
Chemicals. Example 19, atazanavir, didanosine, stavudine, efavirenz, and enfuvirtide (T-20) were synthesized by Bristol-Myers Squibb using published or known reactions. […] Tenofovir was tested as tenofovir disopoxil fumarate. Zidovudine and zalcitabine were purchased from Sigma, and emtricitabine from Moravek Biochemicals.
Drug Susceptibility and Cytotoxicity Assays. For drug susceptibility assays, MT-2 cells were infected with HIV-1 303B (or NL36G), at an MOI of 0.001, and seeded into 96-well microtiter plates (2.5×10^5 cells/ml) containing serial dilutions of test compounds. […] Each drug ratio consisted of an array of 3-fold serial dilutions, and was performed with eight or more replicas on separate multi-well plates. HIV infected cells were incubated at 37° C. in 5% CO2, and on day five post-infection, the extent of virus replication was measured by determining cell viability using the CellTiter 96 Aqueous Non-Radioactive Cell Proliferation Assay (Promega). […] Cytotoxicity assays were performed in parallel with the combination experiments. Here, uninfected cells were exposed to the same drug combinations, and assayed after five days for cell viability using the MTS assay.
Analysis of Drug Combination Effects. For determination of combination index (CI) values, drugs were diluted in a fixed ratio and multiple ratios were analyzed. The drug serial dilutions spanned a range of concentrations near the EC50 value of each compound, so that equivalent antiviral activities could be compared. The normalized responses from each therapy are fit to the four-parameter logistic model with a common minimum and maximum across all therapies. Conceptually, this equation can be written as
In this equation, Fa stands for “fraction affected,” and represents the fraction of the viral load that has been inactivated. […] The EC50, represented by the Ci in the above equation, is the drug concentration that is expected to reduce the amount of virus by 50%, and the Bi are the parameters that reflects the slope of the concentration-response curve. For this assay, A is the bottom plateau common to all curves, D is the common top plateau, Bj is the “slope” parameter for the jth therapy, and Cj is the concentration that produces an effect equal to the average of A and D for the jth therapy. Therapies 1 and 2 correspond to mono therapies 1 and 2, respectively. Therapies 3, 4, and 5 correspond to the three combination therapies. EC50 values for each drug were determined from the single drug experiments, using the above equation. The equation was fit using a nonlinear regression routine (Proc Nlin) in PC SAS version 8.2 (SAS Institute Inc.).
To assess antiviral effects of different drug combination treatments, combination indices (CIs) were calculated according to Chou and Rideout. The combination index was computed as
In this equation [Dm]1 and [Dm]2 are the concentrations of drugs that would individually produce a specific level of effect, while [D]1 and [D]2 are the concentrations of drugs in combination that would produce the same level of effect.
Theoretically, additivity is implied if the CI is equal to one, synergy if the CI is less than one, and antagonism if the CI is greater than one.

[4] = test system: MT-2 cells; assay: Cytotoxicity assay of the drug combinations, uninfected cells, MTS; type: cell-based; details: highest concentrations tested, five days
Method: Drug Susceptibility and Cytotoxicity Assays. For drug susceptibility assays, MT-2 cells were infected with HIV-1 303B (or NL36G), at an MOI of 0.001, and seeded into 96-well microtiter plates (2.5×10^5 cells/ml) containing serial dilutions of test compounds. […] Each drug ratio consisted of an array of 3-fold serial dilutions, and was performed with eight or more replicas on separate multi-well plates. HIV infected cells were incubated at 37° C. in 5% CO2, and on day five post-infection, the extent of virus replication was measured by determining cell viability using the CellTiter 96 Aqueous Non-Radioactive Cell Proliferation Assay (Promega). Maximal cell protection was typically seen in samples treated with the highest drug concentration. In the cell viability assay, the tetrazolium compound MTS (3-(4,5-dimethylthiazol-2-yl)-5-(3-carboxymethoxyphenyl)-2-4-sulphophenyl-2H-tetrazolium) is added to cells, whereby enzymes in metabolically active cells convert it into a colored formazan product, which is quantitated by reading absorbance at 490 nm. Cytotoxicity assays were performed in parallel with the combination experiments. Here, uninfected cells were exposed to the same drug combinations, and assayed after five days for cell viability using the MTS assay.

[5] = Table 1, read-out: Activity (HIV-integrase inhibition, IC50 class)
[6] = Table 2a, read-out: HIV-Integrase Inhibition Activity
[7] = in combination with Example 19, EC50 ratio 1:1 (molar 5:44)
[8] = in combination with Example 19, EC50 ratio 1:2.5 (molar 1:22)
[9] = in combination with Example 19, EC50 ratio 2.5:1 (molar 25:88)

Molecule | melting point | pIC50 [1, 6] | pEC50 [2] | also measured
COc1ncccc1-c1cc(F)ccc1CNC(=O)c1nc2n(c(=O)c1O)CCOC2(C)C [Example 76, Pyrimido[2,1-c][1,4]oxazine-2-carboxamide, N-[[4-fluoro-2-(2-methoxy-3-pyridinyl)phenyl]methyl]-4,6,7,9-tetrahydro-3-hydroxy-9,9-dimethyl-4-oxo-] | 227 °C |  |  | pIC50 [1, 5]: 7.00 to 8.70
CCOP(=O)(OCC)c1cc(F)ccc1CNC(=O)c1nc2n(c(=O)c1O)CCOC2(C)C [Example 213, Phosphonic acid, [5-fluoro-2-[[[(4,6,7,9-tetrahydro-3-hydroxy-9,9-dimethyl-4-oxopyrimido[2,1-c][1,4]oxazin-2-yl)carbonyl]amino]methyl]phenyl]-, diethyl ester] | 124 °C |  |  | pIC50 [1, 5]: 7.00 to 8.70
CCC1OCCn2c1nc(C(=O)NCc1ccc(F)cc1-n1cnc(C)n1)c(O)c2=O (stereo not shown) [Example 284, Pyrimido[2,1-c][1,4]oxazine-2-carboxamide, 9-ethyl-N-[[4-fluoro-2-(3-methyl-1H-1,2,4-triazol-1-yl)phenyl]methyl]-4,6,7,9-tetrahydro-3-hydroxy-4-oxo-e] | 213 °C | 7.00 to 8.70 | 7.00 to 8.52 | 
Cn1ccc(-c2cc(F)ccc2CNC(=O)c2nc3n(c(=O)c2O)CCOC3(C)C)n1 [Example 286, Pyrimido[2,1-c][1,4]oxazine-2-carboxamide, N-[[4-fluoro-2-(1-methyl-1H-pyrazol-3-yl)phenyl]methyl]-4,6,7,9-tetrahydro-3-hydroxy-9,9-dimethyl-4-oxo-] | 220 °C | 7.00 to 8.70 | 7.00 to 8.52 | 
Cn1nccc1-c1cc(F)ccc1CNC(=O)c1nc2n(c(=O)c1O)CCOC2(C)C [Example 287, Pyrimido[2,1-c][1,4]oxazine-2-carboxamide, N-[[4-fluoro-2-(1-methyl-1H-pyrazol-5-yl)phenyl]methyl]-4,6,7,9-tetrahydro-3-hydroxy-9,9-dimethyl-4-oxo-] | 221 °C | 7.00 to 8.70 | 7.00 to 8.52 | 
Cc1ncn(-c2ccccc2CNC(=O)c2nc3n(c(=O)c2O)CCOC3(C)C)n1 [Example 288, Pyrimido[2,1-c][1,4]oxazine-2-carboxamide, 4,6,7,9-tetrahydro-3-hydroxy-9,9-dimethyl-N-[[2-(3-methyl-1H-1,2,4-triazol-1-yl)phenyl]methyl]-4-oxo-e] | 234 °C (dec.) | 7.00 to 8.70 | 7.00 to 8.52 | 
enfuvirtide |  |  |  | overall antiviral effect of the two-drug combination with Example 19 (in words) ([3]; classification from combination indices): synergistic; Combination Indices at 50% HIV Inhibition (Confidence Interval) [3, 7]: 0.68 (0.59, 0.77); Combination Indices at 75% HIV Inhibition (Confidence Interval) [3, 7]: 0.59 (0.48, 0.70); Combination Indices at 90% HIV Inhibition (Confidence Interval) [3, 7]: 0.52 (0.37, 0.67); Combination Indices at 50% HIV Inhibition (Confidence Interval) [3, 8]: 0.75 (0.65, 0.85); Combination Indices at 75% HIV Inhibition (Confidence Interval) [3, 8]: 0.60 (0.49, 0.70); Combination Indices at 90% HIV Inhibition (Confidence Interval) [3, 8]: 0.48 (0.34, 0.61); Combination Indices at 50% HIV Inhibition (Confidence Interval) [3, 9]: 0.76 (0.65, 0.86); Combination Indices at 75% HIV Inhibition (Confidence Interval) [3, 9]: 0.73 (0.59, 0.86); Combination Indices at 90% HIV Inhibition (Confidence Interval) [3, 9]: 0.71 (0.50, 0.92); pEC50 ([3]; single drug, MT-2 cells, MOI 0.001, day five, MTS cell viability): 7.21; cytotoxicity of the drug combinations with Example 19 [4]: No significant cytotoxicity
